Experimental data as given in patent publication US9708286B2, “Ingenol-3-acylates III and ingenol-3-carbamates” (LEO Laboratories Limited, priority 2010, dated 2017).
pEC50: −log10 of the molar value.

How the values were obtained:
Assay type in all cases: cell-based
[1] = test system: HeLa cells; experiment: Necrosis assay; details: Homo sapiens, HeLa, 0.5 h, read-out: HeLa necrosis EC50 range
Procedure, shortened: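 HeLa cells treated with compound at 10 μM to 400 μM (final) for 30 min at 37° C., viability then measured by PrestoBlue fluorescence (ex 535/em 630 nm). Normalized to 1% DMSO and 400 μM ingenol mebutate controls; AbsEC50 from four-parameter sigmoidal fit.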

[2] = test system: Primary human epidermal keratinocytes, HeKa; experiment: HeKa cytokine release (IL-8); details: Homo sapiens, HEKa, 6 h, read-out: HeKa cytokine release (IL-8) Rel EC50 range
Procedure, shortened: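 Seeded cells exposed to compound dilutions for 6 h at 37° C; IL-8 in supernatant quantified by MSD sandwich electrochemiluminescence immunoassay. Effects normalized to positive control (1.5×10^−7 M PEP0005), four-parameter sigmoidal fit; Rel EC50 is concentration midway between fitted top and bottom.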

[3] = test system: PMN's (polymorphonuclear leukocytes); experiment: Neutrophil oxidative burst; details: Leukocyte, 40 min, read-out: Neutrophil oxidative burst Rel EC50 range, PMN from buffy coats, 40 min at RT, hydroethidine fluorescence; normalized to 5×10^−7 M PEP0005
Procedure, shortened: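 Human buffy-coat neutrophils (2.5×10^5/well) in HBSS with 0.1% BSA, 5 mM glucose treated with compound premixed with 10 μM hydroethidine for 40 min at RT; fluorescence read at 485/579 nm. Normalized to 5×10^−7 M PEP0005; Rel EC50 is midway between fitted top and bottom, Abs EC50 gives 50% of PEP0005 maximum.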

SMILES | pEC50 [1] | pEC50 [2] | pEC50 [3]
CC1=C[C@]23C(=O)[C@@H](C=C(CO)[C@@H](O)[C@]2(O)[C@H]1OC(=O)c1c(C)nn(Cc2ccccc2)c1C)[C@H]1[C@@H](C[C@H]3C)C1(C)C [Compound 560, Ingenol 3-(1-benzyl-3,5-dimethyl-pyrazole-4-carboxylate)] | > 3.82 | > 7.70 | > 7.70
CC1=C[C@]23C(=O)[C@@H](C=C(CO)[C@@H](O)[C@]2(O)[C@H]1OC(=O)c1c2c(nn1C)CCCC2)[C@H]1[C@@H](C[C@H]3C)C1(C)C [Compound 563, Ingenol 3-(2-methyl-4,5,6,7-tetrahydroindazole-3-carboxylate)] | > 3.82 | > 7.70 | > 7.70
CC1=C[C@]23C(=O)[C@@H](C=C(CO)[C@@H](O)[C@]2(O)[C@H]1OC(=O)c1c(C)n(C)c2ccccc12)[C@H]1[C@@H](C[C@H]3C)C1(C)C [Compound 564, Ingenol 3-(1,2-dimethylindole-3-carboxylate)] | > 3.82 | > 7.70 | > 7.70
COc1ccc2c(c1)c(C(=O)O[C@H]1C(C)=C[C@]34C(=O)[C@@H](C=C(CO)[C@@H](O)[C@]13O)[C@H]1[C@@H](C[C@H]4C)C1(C)C)c(C)n2C [Compound 565, Ingenol 3-(5-methoxy-1,2-dimethyl-indole-3-carboxylate)] | > 3.82 | > 7.70 | > 7.70
CC1=C[C@]23C(=O)[C@@H](C=C(CO)[C@@H](O)[C@]2(O)[C@H]1OC(=O)c1c(C)nn(C)c1C)[C@H]1[C@@H](C[C@H]3C)C1(C)C [Compound 566, Ingenol 3-(1,3,5-trimethylpyrazole-4-carboxylate)] | < 3.46 | 7.00 to 7.70 | 7.00 to 7.70
CC1=C[C@]23C(=O)[C@@H](C=C(CO)[C@@H](O)[C@]2(O)[C@H]1OC(=O)c1nonc1C)[C@H]1[C@@H](C[C@H]3C)C1(C)C [Compound 567, Ingenol 3-(4-methyl-1,2,5-oxadiazole-3-carboxylate)] | < 3.46 | < 7.00 | 7.00 to 7.70
COc1nc(C)c(C(=O)O[C@H]2C(C)=C[C@]34C(=O)[C@@H](C=C(CO)[C@@H](O)[C@]23O)[C@H]2[C@@H](C[C@H]4C)C2(C)C)s1 [Compound 568, Ingenol 3-(2-methoxy-4-methyl-thiazole-5-carboxylate)] | 3.46 to 3.82 | 7.00 to 7.70 | 7.00 to 7.70
CC1=C[C@]23C(=O)[C@@H](C=C(CO)[C@@H](O)[C@]2(O)[C@H]1OC(=O)c1nn(C)cc1Br)[C@H]1[C@@H](C[C@H]3C)C1(C)C [Compound 570, Ingenol 3-(4-bromo-1-methyl-pyrazole-3-carboxylate)] | 3.46 to 3.82 | < 7.00 | 7.00 to 7.70
CC1=C[C@]23C(=O)[C@@H](C=C(CO)[C@@H](O)[C@]2(O)[C@H]1OC(=O)c1c(C)c2ccccc2n1C)[C@H]1[C@@H](C[C@H]3C)C1(C)C [Compound 571, Ingenol 3-(1,3-dimethylindole-2-carboxylate)] | > 3.82 | > 7.70 | > 7.70
COc1ccc2c(c1)c(C)c(C(=O)O[C@H]1C(C)=C[C@]34C(=O)[C@@H](C=C(CO)[C@@H](O)[C@]13O)[C@H]1[C@@H](C[C@H]4C)C1(C)C)n2C [Compound 572, Ingenol 3-(5-methoxy-1,3-dimethyl-indole-2-carboxylate)] | > 3.82 | > 7.70 | > 7.70
CC1=C[C@]23C(=O)[C@@H](C=C(CO)[C@@H](O)[C@]2(O)[C@H]1OC(=O)c1c(-c2ccccc2)c2ccccc2n1C)[C@H]1[C@@H](C[C@H]3C)C1(C)C [Compound 574, Ingenol 3-(1-methyl-3-phenyl-indole-2-carboxylate)] | > 3.82 | > 7.70 | > 7.70
CC1=C[C@]23C(=O)[C@@H](C=C(CO)[C@@H](O)[C@]2(O)[C@H]1OC(=O)c1c(C)noc1C(F)(F)F)[C@H]1[C@@H](C[C@H]3C)C1(C)C [Compound 575, Ingenol 3-(3-methyl-5-(trifluoromethyl)isoxazole-4-carboxylate)] | > 3.82 | > 7.70 | > 7.70
CC1=C[C@]23C(=O)[C@@H](C=C(CO)[C@@H](O)[C@]2(O)[C@H]1OC(=O)c1c(C)ccn1C)[C@H]1[C@@H](C[C@H]3C)C1(C)C [Compound 576, Ingenol 3-(1,3-dimethylpyrrole-2-carboxylate)] | > 3.82 | > 7.70 | > 7.70
CC1=C[C@]23C(=O)[C@@H](C=C(CO)[C@@H](O)[C@]2(O)[C@H]1OC(=O)c1c(C)nn(CC(F)(F)F)c1C)[C@H]1[C@@H](C[C@H]3C)C1(C)C [Compound 577, Ingenol 3-(3,5-dimethyl-1-(2,2,2-trifluoroethyl)pyrazole-4-carboxylate)] | 3.46 to 3.82 | > 7.70 | 7.00 to 7.70
CC1=C[C@]23C(=O)[C@@H](C=C(CO)[C@@H](O)[C@]2(O)[C@H]1OC(=O)c1cc(C)n(C2CC2)c1C)[C@H]1[C@@H](C[C@H]3C)C1(C)C [Compound 578, Ingenol 3-(1-cyclopropyl-2,5-dimethyl-pyrrole-3-carboxylate)] | > 3.82 | > 7.70 | > 7.70
CC1=C[C@]23C(=O)[C@@H](C=C(CO)[C@@H](O)[C@]2(O)[C@H]1OC(=O)c1cc(C)n(C)c1C)[C@H]1[C@@H](C[C@H]3C)C1(C)C [Compound 579, Ingenol 3-(1,2,5-trimethylpyrrole-3-carboxylate)] | 3.46 to 3.82 | > 7.70 | > 7.70
CC1=C[C@]23C(=O)[C@@H](C=C(CO)[C@@H](O)[C@]2(O)[C@H]1OC(=O)c1c(C)c[nH]c1C)[C@H]1[C@@H](C[C@H]3C)C1(C)C [Compound 580, Ingenol 3-(2,4-dimethyl-1H-pyrrole-3-carboxylate)] | 3.46 to 3.82 | < 7.00 | < 7.00
CC1=C[C@]23C(=O)[C@@H](C=C(CO)[C@@H](O)[C@]2(O)[C@H]1OC(=O)c1cccn1C)[C@H]1[C@@H](C[C@H]3C)C1(C)C [Compound 581, Ingenol 3-(1-methylpyrrole-2-carboxylate)] | 3.46 to 3.82 | > 7.70 | > 7.70
CC1=C[C@]23C(=O)[C@@H](C=C(CO)[C@@H](O)[C@]2(O)[C@H]1OC(=O)c1cc(C)c[nH]1)[C@H]1[C@@H](C[C@H]3C)C1(C)C [Compound 582, Ingenol 3-(4-methyl-1H-pyrrole-2-carboxylate)] | 3.46 to 3.82 | > 7.70 | > 7.70
CC1=C[C@]23C(=O)[C@@H](C=C(CO)[C@@H](O)[C@]2(O)[C@H]1OC(=O)c1ccc(C)n1C)[C@H]1[C@@H](C[C@H]3C)C1(C)C [Compound 583, Ingenol 3-(1,5-dimethylpyrrole-2-carboxylate)] | 3.46 to 3.82 | > 7.70 | > 7.70
CC1=C[C@]23C(=O)[C@@H](C=C(CO)[C@@H](O)[C@]2(O)[C@H]1OC(=O)c1[nH]ccc1C)[C@H]1[C@@H](C[C@H]3C)C1(C)C [Compound 584, Ingenol 3-(3-methyl-1H-pyrrole-2-carboxylate)] | 3.46 to 3.82 | > 7.70 | > 7.70
CC1=C[C@]23C(=O)[C@@H](C=C(CO)[C@@H](O)[C@]2(O)[C@H]1OC(=O)c1cccn1C1CC1)[C@H]1[C@@H](C[C@H]3C)C1(C)C [Compound 585, Ingenol 3-(1-cyclopropylpyrrole-2-carboxylate)] | > 3.82 | > 7.70 | > 7.70
CCn1cc(C)c(C(=O)O[C@H]2C(C)=C[C@]34C(=O)[C@@H](C=C(CO)[C@@H](O)[C@]23O)[C@H]2[C@@H](C[C@H]4C)C2(C)C)c1C [Compound 586, Ingenol 3-(1-ethyl-2,4-dimethyl-pyrrole-3-carboxylate)] | > 3.82 | > 7.70 | > 7.70
C=CCn1cc(C)c(C(=O)O[C@H]2C(C)=C[C@]34C(=O)[C@@H](C=C(CO)[C@@H](O)[C@]23O)[C@H]2[C@@H](C[C@H]4C)C2(C)C)c1C [Compound 587, Ingenol 3-(1-allyl-2,4-dimethyl-pyrrole-3-carboxylate)] | > 3.82 | > 7.70 | > 7.70
CC1=C[C@]23C(=O)[C@@H](C=C(CO)[C@@H](O)[C@]2(O)[C@H]1OC(=O)c1c(C)cn(CC2CC2)c1C)[C@H]1[C@@H](C[C@H]3C)C1(C)C [Compound 588, Ingenol 3-(1-(cyclopropylmethyl)-2,4-dimethyl-pyrrole-3-carboxylate)] | > 3.82 | > 7.70 | > 7.70
COCCn1cc(C)c(C(=O)O[C@H]2C(C)=C[C@]34C(=O)[C@@H](C=C(CO)[C@@H](O)[C@]23O)[C@H]2[C@@H](C[C@H]4C)C2(C)C)c1C [Compound 589, Ingenol 3-(1-(2-methoxyethyl)-2,4-dimethyl-pyrrole-3-carboxylate)] | > 3.82 | > 7.70 | 7.00 to 7.70
